# Experimental data taken from article PMC2650494 (Bioorganic & medicinal chemistry, 2008).
# Non-standard residues stand in square brackets, D forms with d. Residues, ends and D or L forms follow the SMILES beside them. *: point of attachment. Phe(4-CH2SO3H) = N[C@@H](Cc1ccc(CS(=O)(=O)O)cc1)C(=O)O; X1 = [N-]=[N+]=NCCOCCOCC*
# How the values were obtained:
# gp120-CD4 = gp120-CD4 (Human immunodeficiency virus type 1 group M subtype B, UniProt P35961); assay type: binding, HIV-1; details: 1H NMR; 40:1 peptide:gp120-CD4
structure (smiles),measurement,setting,value
CC[C@H](C)[C@H](NC(=O)[C@H](CC(=O)O)NC(=O)[C@H](Cc1ccc(CS(=O)(=O)O)cc1)NC(=O)[C@@H](NC(=O)[C@@H]1CCCN1C(=O)[C@H](CO)NC(=O)[C@H](CO)NC(=O)[C@@H](NC(=O)[C@H](CCC(N)=O)NC(=O)[C@H](Cc1ccc(CS(=O)(=O)O)cc1)NC(=O)[C@@H](N)CC(=O)O)C(C)C)[C@@H](C)CC)C(=O)N[C@@H](CC(N)=O)C(=O)N[C@@H](Cc1ccc(CS(=O)(=O)O)cc1)C(=O)N[C@@H](Cc1ccc(O)cc1)C(=O)N[C@H](C(=O)N[C@@H](CO)C(=O)N[C@@H](CCC(=O)O)C(=O)N1CCC[C@H]1C(=O)N[C@@H](COCCOCCOCCN=[N+]=[N-])C(=O)O)[C@@H](C)O [compound 11] (H-D[Phe(4-CH2SO3H)]QVSSPI[Phe(4-CH2SO3H)]DIN[Phe(4-CH2SO3H)]YTSEPS(X1)-OH; N-terminus and C-terminus assumed),solubility,Water solubility,> 30 mM
same,"Increase in line width between free and bound peptides, 10δ",gp120-CD4,2.4 Hz
same,"Increase in line width between free and bound peptides, 14δ",gp120-CD4,2.8 Hz
same,"Increase in line width between free and bound peptides, 15δ",gp120-CD4,1.9 Hz
same,"Increase in line width between free and bound peptides, 15ε",gp120-CD4,3.2 Hz
